Like-named read-outs stand apart in the source and are kept apart here.
Tests used:
[1] = test system: Monkey/Cynomolgus; assay: 7-day repeat dose toxicity study in cynomolgus monkeys; type: in vivo; conditions: monkeys, 25, 75, 250 mg/kg/day
Experimental: (§1) In cynomolgus monkeys, a 7-day repeat dose toxicity study was conducted with doses up to 250 mg/kg/day. […] To aid in dose selection for a subsequent pivotal study, an additional study was conducted to determine the maximum feasible dose under optimal feeding conditions in cynomolgus monkeys. […] Dosing monkeys in the fasted state prior to dosing yielded more consistently higher exposures. Therefore, a dose of 375 mg/kg in 0.5% methyl cellulose (400 cps) and 0.1% Tween 80 administered to fasted monkeys was selected for the 14-day repeat-dose phase of the study, and was considered the maximum feasible dose.

[2] = toxicokinetics, single dose and 14-day monkey study; type: in vivo; conditions: cynomolgus monkey, plasma, po, monkeys
Experimental: as §1

[3] = single intravenous dose pharmacokinetics in CD-1 mice; type: in vivo, mouse; conditions: for Vd: read-out: Vdss
Experimental: (§2) In vitro and in vivo studies were conducted to characterize the absorption, PK, distribution, and metabolism of Compound 1. […] Additionally, plasma samples from single dose PK studies in mice and monkeys were evaluated for circulating metabolites.

[4] = 91-day repeat-dose toxicology study with mice; type: in vivo, mouse; conditions: mouse, in vivo, 91-day
[5] = test system: mice; assay: 91-day repeat-dose toxicology study with mice; type: in vivo, mouse; conditions: 750 mg/kg/day
[6] = test system: CAIA in BALB/c mice; assay: collagen antibody-induced arthritis (CAIA) model; type: in vivo, mouse
[7] = test system: Mannan PsA in C57B1/6 mice; assay: mannan-induced psoriatic arthritis model; type: in vivo, mouse
[8] = test system: Mouse/CD-1; assay: exploratory single dose and 14-day repeat-dose toxicity study in mice; type: in vivo
Experimental: (§3) A single oral dose study with a 14-day repeat-dose phase was conducted in male and female mice. 250 mg/kg was selected as the highest dose for the repeat dose portion of the study.

[9] = test system: TNF-α secretion by PBMCs; assay: ex vivo studies of PBMCs from healthy volunteers; type: cell-based, human; conditions: at TE of 60%
[10] = test system: Monkey/Cynomolgus; assay: single dose (fasted/non-fasted) and 14-day repeat-dose study in cynomolgus monkeys; type: in vivo
Experimental: as §1

[11] = test system: osteoclast differentiation; assay: osteoclast differentiation in vitro; type: cell-based
[12] = plasma exposure in HLA-B27/Huβ2m rats; conditions: HLA B27 Tg rat, 20 mg/kg
Description: In each disease model, steady-state pharmacokinetics were characterized.

[13] = steady-state plasma exposure in mouse disease models; type: in vivo; conditions: 3 mg/kg
[14] = toxicokinetics, 7-day monkey study; type: in vivo; conditions: cynomolgus monkey, plasma, oral, monkeys, read-out: Mean Day 7 AUC0-last
Experimental: as §1

[15] = exposure in 28- and 91-day monkey toxicology studies
[16] = test system: proinflammatory cytokines (TNF-α) in LPS-stimulated whole blood; assay: Phase 1 study, whole-blood ex vivo assay with LPS stimulation; type: cell-based, human
[17] = toxicokinetics, exploratory 14-day mouse study; type: in vivo; conditions: both sexes, CD-1, mouse, plasma, po, mice, read-out: Mean Day 14 AUC0-last
Experimental: as §3

[18] = single oral dose pharmacokinetics in cynomolgus monkeys; type: in vivo, cynomolgus monkey
Experimental: as §2

[19] = test system: Ankylosing spondylitis in HLA B27 Tg rat; assay: HLA-B27/Huβ2m transgenic rat model of ankylosing spondylitis
Description: Etanercept and tofactinib (Balagué et al. Profiling of dihydroorotate dehydrogenase, p38 and JAK inhibitors in the rat adjuvant-induced arthritis model: a translational study. Br J Pharmacol. 2012 June; 166(4):1320-32) were included in this rat study as comparator molecules.

[20] = CD-1, plasma, mouse, female, single IV 5 mg/kg
[21] = CD-1, plasma, mouse, male, single IV 5 mg/kg
[22] = cynomolgus monkey, plasma, monkey, female, single oral 50 mg/kg
[23] = cynomolgus monkey, plasma, monkey, female, single oral 150 mg/kg
[24] = cynomolgus monkey, plasma, monkey, female, single oral 375 mg/kg
[25] = cynomolgus monkey, plasma, monkey, male, single oral 50 mg/kg
[26] = cynomolgus monkey, plasma, monkey, male, single oral 150 mg/kg
[27] = cynomolgus monkey, plasma, monkey, male, single oral 375 mg/kg

CCOCc1cnc(Cl)nc1Oc1ccc2c(ccc3sc4c(c32)NC[C@@H](C)NC4=O)n1 [Compound 1]
Findings, 7 days [1]: no compound-related findings in any endpoints
AUC(0-t) ([2]; 375 mg/kg, 375 mg/kg, fasted, read-out: Mean Day 1 AUC0-t): 11500 ng·h/mL
AUC(0-t) ([2]; 375 mg/kg, 375 mg/kg, non-fasted, read-out: Mean Day 1 AUC0-t): 4060 ng·h/mL
AUC(0-t) ([2]; 375 mg/kg/day, fasted, 375 mg/kg/day, read-out: Mean Day 14 AUC0-t): 5510 ng·h/mL
AUC(0-t) ([2]; 500 mg/kg, 500 mg/kg, fasted, read-out: Mean Day 1 AUC0-t): 14300 ng·h/mL
AUC(0-t) ([2]; 500 mg/kg, 500 mg/kg, non-fasted, read-out: Mean Day 1 AUC0-t): 11400 ng·h/mL
AUC [3, 20]: 3400 ng·h/mL
AUC(0-inf) [3, 20]: 3430 ng·h/mL
clearance [3, 20]: 24.3 mL/min/kg
Vd [3, 20]: 2.49 L/kg
half-life ([3]; CD-1, plasma, mouse, female, single IV 5 mg/kg, read-out: t1/2,z (converted)): 396 min
AUC [3, 21]: 4160 ng·h/mL
AUC(0-inf) [3, 21]: 4350 ng·h/mL
clearance [3, 21]: 19.2 mL/min/kg
Vd [3, 21]: 5.08 L/kg
half-life ([3]; CD-1, plasma, mouse, male, single IV 5 mg/kg, read-out: t1/2,z (converted)): 438 min
half-life ([3]; both sexes, CD-1, mouse, plasma, iv, 5 mg/kg, mice, read-out: terminal half-life (converted)): ~420 min
systemic clearance as % of liver blood flow ([3]; mice, IV): approximately 25 % of liver blood flow
NOAEL at 91 days [4]: 100 mg/kg/day
finding on which the NOAEL was based [5]: microscopic findings in the heart
% Inhibition, paw swelling ([6]; 3 mg/kg, last day of dosing): 89.7% paw
Minimally Efficacious Dose ([6]; endpoint paw swelling): 3 mg/kg
% Inhibition by PsASI ([7]; 3 mg/kg, from PsASI-score time curve): 36% by
Minimally Efficacious Dose ([7]; endpoint PsASI score (ear thickness, skin flakiness, paw score combined)): 3 mg/kg
Findings, 14-day phase ([8]; mice, 15, 75, 250 mg/kg/day): no compound related findings were identified
Findings, single dose phase ([8]; mice, at 750 mg/kg): Cold to touch and shaking
inhibition of TNF-α secretion [9]: approximately 70%
Findings, single dose phase ([10]; 375 and 500 mg/kg, fasted and non-fasted): No compound-related findings
Findings, 14-day phase ([10]; fasted, 375 mg/kg/day): No compound-related findings
osteoclast differentiation [11]: inhibit osteoclast differentiation in vitro
AUC [12]: 2820 ng·h/mL
AUC ([13]; BALB/c, mouse, CAIA in BALB/c mice): 626 ng·h/mL
AUC ([13]; BALB/c, mouse, imiquimod ear swelling in BALB/c mice): 917 ng·h/mL
AUC ([13]; C57B1/6, mouse, mannan PsA in C57B1/6 mice): 467 ng·h/mL
AUC(0-t) ([14]; 25 mg/kg/day): 1090 ng·h/mL
AUC(0-t) ([14]; 75 mg/kg/day): 1170 ng·h/mL
AUC(0-t) ([14]; 250 mg/kg/day): 9440 ng·h/mL
AUC ([15]; cynomolgus monkey, plasma, oral, 375 mg/kg/day): 9120 ng·h/mL
margin of monkey exposure over human 150-mg dose ([15]; monkey NOAEL AUCLST vs human 150 mg): 6.7 fold
TNF inhibition in the ex vivo assay ([16]; Part 1, single oral doses 10 mg to 400 mg, by 4 hours, LPS 24 hours): dose dependent increase
TNF-α in the ex vivo assay ([16]; Part 2, 14 days of dosing, doses greater than 10 mg, maximal inhibition at 150 mg): sustained reductions in TNF-α
AUC(0-t) ([17]; 15 mg/kg/day): 4820 ng·h/mL
AUC(0-t) ([17]; 75 mg/kg/day): 16600 ng·h/mL
AUC(0-t) ([17]; 250 mg/kg/day): 35100 ng·h/mL
bioavailability ([18]; both sexes, cynomolgus monkey, plasma, po, monkeys, doses in the range 15 to 375 mg/kg): 8 to 28%
Tmax ([18]; both sexes, cynomolgus monkey, plasma, monkeys, oral dosing, read-out: time to maximum plasma concentration (tmax)): 1 to 6 h
AUC [18, 22]: 3810 ng·h/mL
AUC(0-inf) [18, 22]: 3840 ng·h/mL
Cmax [18, 22]: 1040 ng/mL
Tmax ([18]; cynomolgus monkey, plasma, monkey, female, single oral 50 mg/kg, median, read-out: tmax): 2 h
AUC [18, 23]: 4750 ng·h/mL
AUC(0-inf) [18, 23]: 4820 ng·h/mL
Cmax [18, 23]: 1200 ng/mL
Tmax ([18]; cynomolgus monkey, plasma, monkey, female, single oral 150 mg/kg, median, read-out: tmax): 2 h
AUC [18, 24]: 22600 ng·h/mL
AUC(0-inf) [18, 24]: 22700 ng·h/mL
Cmax [18, 24]: 2530 ng/mL
Tmax ([18]; cynomolgus monkey, plasma, monkey, female, single oral 375 mg/kg, median, read-out: tmax): 6 h
AUC [18, 25]: 3680 ng·h/mL
AUC(0-inf) [18, 25]: 3710 ng·h/mL
Cmax [18, 25]: 865 ng/mL
Tmax ([18]; cynomolgus monkey, plasma, monkey, male, single oral 50 mg/kg, median, read-out: tmax): 2 h
AUC [18, 26]: 8480 ng·h/mL
AUC(0-inf) [18, 26]: 8590 ng·h/mL
Cmax [18, 26]: 1990 ng/mL
Tmax ([18]; cynomolgus monkey, plasma, monkey, male, single oral 150 mg/kg, median, read-out: tmax): 1 h
AUC [18, 27]: 13900 ng·h/mL
AUC(0-inf) [18, 27]: 14000 ng·h/mL
Cmax [18, 27]: 1890 ng/mL
F ([18]; monkey, female, single oral 50 mg/kg): 19%
F ([18]; monkey, female, single oral 150 mg/kg): 8%
F ([18]; monkey, female, single oral 375 mg/kg): 15%
F ([18]; monkey, male, single oral 50 mg/kg): 18%
F ([18]; monkey, male, single oral 150 mg/kg): 14%
F ([18]; monkey, male, single oral 375 mg/kg): 9%
Paw Swelling Inhibition (%) ([19]; 100 mg/kg daily oral gavage): 65%
dose dependence of inhibition of paw swelling ([19]; 20 and 100 mg/kg): dose-dependent inhibition of paw swelling
cytokines IL-7, IL-1β; chemokines MCP-1, MIP-1α, KC; GM-CSF ([19]; HLA-B27/Huβ2m rats): A trend towards decreases
Minimally Efficacious Dose (lowest tested dose determined to be effective) ([19]; endpoint paw score): 20 mg/kg
